Test results: publication PMC12291762 (Antioxidants, 2025)

Experiments:
[1] = tested on: systemic oxidative stress parameters; test: Systemic redox state (plasma, erythrocyte lysate) 24 h after carrageenan; type: in vivo, Wistar albino rats
Method: (§1) Following 24 h of carrageenan-induced paw edema inflammation model and intraperitoneal anesthesia induced by ketamine/xylazine (100/10 mg/kg of BW), the animals were sacrificed, while whole-blood samples and edema-affected paw tissues were isolated. After centrifugation of whole blood, plasma and erythrocyte lysate samples were separated for further examination of the applied compounds’ effects on the systemic redox balance state. Pro-oxidative markers including superoxide anion radical (O2∙^−), hydrogen peroxide (H2O2) nitrites (NO2^−), and index of lipid peroxidation measured as thiobarbituric acid (TBA) reactive substances (TBARS) were determined from plasma samples, while the antioxidant capacity, including superoxide dismutase (SOD) and catalase (CAT) activity, as well as the reduced glutathione (GSH) level were examined in erythrocyte lysate samples [46]. […] Edema-affected paw tissue samples were weighed (100 mg) and homogenized (OmniPrep™ multi-sample homogenizer, Omni International, Kennesaw, GA, USA) in 900 µL phosphate buffer on ice (pH = 7.4), and centrifuged at 12,000 rpm for 20 min. These supernatant samples were used for the determination of the aforementioned pro-oxidative and antioxidative parameters levels. All oxidative stress analyses were performed spectrophotometrically using a Shimadzu UV 1800 spectrophotometer (Kyoto, Japan).
(§2) Determination of the O2∙^− level was conducted by adding 950 µL of a Nitro Blue Tetrazolium (NBT) mixture with TRIS buffer in 50 µL of sample, measured at the 550 nm wavelength. The level of H2O2 was determined during the oxidation of phenol red by H2O2, which was catalyzed with horseradish peroxidase and measured at the 610 nm wavelength. Indirect measurement of nitrites was performed by the precipitation of samples with 30% sulfo-salicylic acid, followed by vortexing and centrifugation at 3000 rpm for 15 min. The equal volumes of isolated supernatant and Griess’ reagent (containing 1% sulfanilamide in 5% phosphoric acid/0.1% naphthalene ethylenediamine-dihydrochloride) were incubated for 10 min and measured at the 550 nm wavelength. The TBARS concentration was determined by adding 400 µL of sample to 200 µL of TBA in 0.05 M NaOH, followed by 15 min incubation at 100 °C. Measurement was performed at the 530 nm wavelength.
(§3) The epinephrine method was used for SOD determination. By adding 100 µL of sample, the same volume of epinephrine, and 1000 µL of carbonate buffer, the measurement was performed at the 470 nm wavelength. The determination of CAT activity was based on the preparation of a mixture containing 100 µL of sample, 50 µL of catalase buffer, and 1000 µL of 10 mM H2O2, which was measured at the 230 nm wavelength.

[2] = tested on: local oxidative stress parameters; test: Local redox state (edema-affected paw tissue homogenate) 24 h after carrageenan; type: in vivo, Wistar albino rats; conditions: inflamed paw tissue; for Local nitrites level (reduction, p < 0.05): comparator not given
Method: as §1, §2, §3

Structure (SMILES) | Systemic SOD activity compared to Dex group ([1]; erythrocyte lysate) | Systemic O2∙− level compared to Dex group ([1]; plasma) | Systemic TBARS level compared to Dex group ([1]; plasma) | Systemic TBARS level compared to Sol (untreated) rats ([1]; plasma) | Local SOD activity compared to Dex rats [2] | Local SOD activity compared to untreated (negative control) rats [2] | Local TBARS level compared to Dex group [2] | Local TBARS level compared to Sol rats [2] | Local nitrites level (reduction, p < 0.05) [2] | Systemic CAT activity compared to Dex group ([1]; erythrocyte lysate) | Systemic GSH level compared to untreated rats ([1]; erythrocyte lysate) | Systemic O2∙− level compared to untreated (Sol) rats ([1]; plasma) | Systemic GSH level compared to Dex group ([1]; erythrocyte lysate) | Systemic H2O2 level compared to Dex group ([1]; plasma)
C[C@H](C(=O)NCC(=O)O)c1cccc(C(=O)c2ccccc2)c1 [Compound 1, (S)-(2-(3-benzoylphenyl)propanoyl)glycine] | significantly lower activity | significantly higher concentration | dexketoprofen injection significantly decreased the TBARS concentration compared to the Sol group, as well as rats treated with compounds 1, 3, and 4 | significantly reducing |  |  |  |  |  |  |  |  |  | 
C[C@H](NC(=O)[C@@H](C)c1cccc(C(=O)c2ccccc2)c1)C(=O)O [Compound 2, ((S)-2-(3-benzoylphenyl)propanoyl)-L-alanine] | no statistical differences | no significant difference |  |  | increase the SOD activity | increase the SOD activity | no statistical differences | reduce the TBARS level | markedly reduced | highest potential to increase CAT activity | significantly increased GSH level | significantly lower |  | 
C[C@H](C(=O)N[C@@H](Cc1ccccc1)C(=O)O)c1cccc(C(=O)c2ccccc2)c1 [Compound 3, ((S)-2-(3-benzoylphenyl)propanoyl)-L-phenylalanine] | significantly lower activity | no significant difference | dexketoprofen injection significantly decreased the TBARS concentration compared to the Sol group, as well as rats treated with compounds 1, 3, and 4 |  |  |  |  |  |  |  |  | significantly lower |  | 
C[C@H](C(=O)N[C@@H](Cc1c[nH]c2ccccc12)C(=O)O)c1cccc(C(=O)c2ccccc2)c1 [Compound 4, ((S)-2-(3-benzoylphenyl)propanoyl)-L-tryptophan] | significantly lower activity | significantly higher concentration | dexketoprofen injection significantly decreased the TBARS concentration compared to the Sol group, as well as rats treated with compounds 1, 3, and 4 |  |  |  |  |  |  | decreased this enzyme activity |  |  | significantly reduced | 
C[C@H](C(=O)NCCCC(=O)O)c1cccc(C(=O)c2ccccc2)c1 [Compound 5, (S)-4-(2-(3-benzoylphenyl)propanamido)butanoic acid] | no statistical differences | no significant difference |  | significantly reducing |  |  |  |  | markedly reduced |  | significantly increased GSH level | significantly lower |  | did not differ significantly
